Reference: publication PMC4210147, “Sequence-Specific Dimerization of a Transmembrane Helix in Amphipol A8-35” (PLoS ONE, 2014)

Key:
human GpA TM domain [1] = biological target: T1, human GpA TM domain (Homo sapiens, UniProt P02724); test: FRET kinetics of exchange of GpA TM peptides between particles/micelles; assay type: binding; conditions: for amplitude of first (fast) phase / amplitude of second (slow) phase / exchange rate constant, first (fast) phase / exchange rate constant, second (slow) phase: double-exponential fit
T1 construct: purchased Peptide Specialty Laboratories, Heidelberg, Germany; host or cells: chemical synthesis (custom peptide)
T1 sequence (P02724 88-120 limits assumed) 1: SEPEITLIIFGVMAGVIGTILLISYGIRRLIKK
T1 sequence (P02724 88-120 limits assumed) 2: T1 sequence (P02724 88-120 limits assumed) 1
Method: (§1) For Förster resonance energy transfer (FRET) measurements, equal concentrations of FL- and TAMRA-labeled GpA TM domains were used. Concentrations of the peptide stock solutions were determined from absorbance measurements on a Perkin Elmer Lambda 35 UV/VIS spectrophotometer. In all experiments, we used 0.25 µM for each of the two labeled GpA peptides. Peptides dissolved in TFE and A8-35 dissolved in ethanol were mixed, and organic solvents were removed under a gentle stream of nitrogen gas. Residual solvent traces were removed by vacuum desiccation overnight. The dried peptide/polymer film was then hydrated in 10 mM HEPES buffer (pH 7.4) containing 150 mM NaCl.
(§2) After at least 2 h of incubation at 37°C and 10 min of centrifugation at 16,000 g, steady-state fluorescence measurements were performed with the supernatant at 25°C on a Horiba Fluoromax 4 system with both excitation and emission slits at 3 nm. The excitation wavelength was set at 439 nm, and emission spectra were recorded from 480 to 650 nm. For FRET measurements with SDS, several concentrations of SDS, both below and above the CMC determined for the given buffer conditions, were used, and hydrated samples were incubated overnight.
Energy transfer E was calculated using the donor fluorescence intensities at 525 nm in presence and absence of acceptor according to [drawing 1] (1)
To investigate the effect of A8-35 on the GpA dimer stability in greater detail, we next performed kinetic measurements and determined the exchange rates of GpA TM helices between various polymer particles after reconstitution. Upon addition of an excess of a competing surfactant, such as free APols, detergents or phospholipids, MPs can be released from preformed complexes with APols, although at very slow dissociation rates, and e.g. integrate into detergent micelles, [37]-[39]. To test this, donor- and acceptor-labeled GpA peptides were individually solubilized in 20 µM A8-35 and incubated at 37°C for at least 2 h. Next, A8-35-solubilized donor and acceptor peptides were mixed in a 1∶1 ratio, and fluorescence emission spectra were recorded every 10 min for about 17 h (Figure 3A). As a control necessary for calculation of energy transfer, this measurement was also performed with solely the donor sample, for which no changes in fluorescence intensity were observed. […] To compare the exchange rates measured in APols with rates determined in micellar environments, the same experiment was performed in 5 mM DDM micelles (Figure 3C).
Figure 3 Kinetics of the exchange of GpA TM peptides between APol aggregates. Donor- and acceptor-labelled GpA TM (each 0.25 µM) domains were separately solubilized in 20 µM APol at a final polymer/peptide ratio of 40∶1. (A) After incubation at 37°C, donor and acceptor were mixed, and emission spectra (normalized at 525 nm) were recorded every 10 min over a time period of 17 h at 25°C. (B) The energy transfer increased over hours to the level determined by steady-state FRET measurements due to mixing of donor- and acceptor-labelled peptides.

GpA TM dimer = conditions: SDS, DDMAB, DPC, lyso-PC, ref [26]-[28], cited from earlier work
human GpA TM domain [2] = biological target: T1, human GpA TM domain; test: Reversibility of SDS-mediated GpA dimer dissociation, FRET after dilution of SDS; assay type: binding; conditions: n = 3
Method: as §1
as §2, with “overnight. […]” for “overnight.”

CC[C@H](C)[C@H](NC(=O)CNC(=O)[C@H](Cc1ccc(O)cc1)NC(=O)[C@H](CO)NC(=O)[C@@H](NC(=O)[C@H](CC(C)C)NC(=O)[C@H](CC(C)C)NC(=O)[C@@H](NC(=O)[C@@H](NC(=O)CNC(=O)[C@@H](NC(=O)[C@@H](NC(=O)CNC(=O)[C@H](C)NC(=O)[C@H](CCSC)NC(=O)[C@@H](NC(=O)CNC(=O)[C@H](Cc1ccccc1)NC(=O)[C@@H](NC(=O)[C@@H](NC(=O)[C@H](CC(C)C)NC(=O)[C@@H](NC(=O)[C@@H](NC(=O)[C@H](CCC(=O)O)NC(=O)[C@@H]1CCCN1C(=O)[C@H](CCC(=O)O)NC(=O)[C@@H](N)CO)[C@@H](C)CC)[C@@H](C)O)[C@@H](C)CC)[C@@H](C)CC)C(C)C)C(C)C)[C@@H](C)CC)[C@@H](C)O)[C@@H](C)CC)[C@@H](C)CC)C(=O)N[C@@H](CCCNC(=N)N)C(=O)N[C@@H](CCCNC(=N)N)C(=O)N[C@@H](CC(C)C)C(=O)N[C@H](C(=O)N[C@@H](CCCCN)C(=O)N[C@@H](CCCCN)C(=O)O)[C@@H](C)CC [GpA TM domain]
amplitude of first (fast) phase (human GpA TM domain [1]; 5 mM DDM micelles): 13.3 | amplitude of second (slow) phase (human GpA TM domain [1]; 5 mM DDM micelles): 15.6 | exchange rate constant, first (fast) phase (human GpA TM domain [1]; 5 mM DDM micelles): 41.5 h⁻¹ | exchange rate constant, second (slow) phase (human GpA TM domain [1]; 5 mM DDM micelles): 5.8 h⁻¹ | duration of peptide exchange (human GpA TM domain [1]; 5 mM DDM micelles, listed as GpA TM peptides): completed after some dozen minutes | energy transfer (human GpA TM domain [1]; 17 h after 1:1 mixing of donor- and acceptor-labeled peptides (each 0.25 µM) in 20 µM A8-35, 25°C): ~35% | dimer fraction after exchange (human GpA TM domain [1]; 17 h after mixing, from energy transfer, 20 µM A8-35, 25°C): ~0.7 | duration of peptide exchange (human GpA TM domain [1]; A8-35 (20 µM)): proceeded for several hours | amplitude of first (fast) phase (human GpA TM domain [1]; A8-35 (20 µM), 25°C): 8.7 | amplitude of second (slow) phase (human GpA TM domain [1]; A8-35 (20 µM), 25°C): 12.4 | exchange rate constant, first (fast) phase (human GpA TM domain [1]; A8-35 (20 µM), 25°C): 2.2 h⁻¹ | exchange rate constant, second (slow) phase (human GpA TM domain [1]; A8-35 (20 µM), 25°C): 0.17 h⁻¹ | dissociation constants of the GpA TM dimer upon further addition of detergent (GpA TM dimer; compared to A8-35): increase significantly | Kd (GpA TM dimer; read-out: dissociation constants of the GpA TM dimer in detergents, low detergent concentrations): ≤ 500 nM | reversibility of dissociation and association of GpA TM helix (human GpA TM domain [2]; 2 mM SDS diluted to 0.4 mM SDS, constant 20 µM A8-35 and peptide): fully reversible | fraction dimer after dilution from higher SDS concentration (human GpA TM domain [2]; 2 mM SDS sample diluted to 0.4 mM SDS, 20 µM A8-35): comparable to that observed at 0.4 mM SDS
